Usually EC50 stands for the midpoint of the concentration-response curve. Higher therefore signals a need for much substance. In general, pEC50 refers to the EC50 on a negative log10 scale, so that one unit is a factor of ten.

Structures can show the parent of a compound that is named as a salt. Where two headings read alike, the source gives them in different places.

The text below walks through data of patent US20070043104A1, “UII-modulating compounds and their use” (priority 2005, published 2007).

The target of this experiment is T1, human urotensin II receptor (Homo sapiens, UniProt Q9UKP6).
T1 construct: expressed in transfected cells; host or cells: NIH3T3 cells
T1 sequence (Q9UKP6 1-389): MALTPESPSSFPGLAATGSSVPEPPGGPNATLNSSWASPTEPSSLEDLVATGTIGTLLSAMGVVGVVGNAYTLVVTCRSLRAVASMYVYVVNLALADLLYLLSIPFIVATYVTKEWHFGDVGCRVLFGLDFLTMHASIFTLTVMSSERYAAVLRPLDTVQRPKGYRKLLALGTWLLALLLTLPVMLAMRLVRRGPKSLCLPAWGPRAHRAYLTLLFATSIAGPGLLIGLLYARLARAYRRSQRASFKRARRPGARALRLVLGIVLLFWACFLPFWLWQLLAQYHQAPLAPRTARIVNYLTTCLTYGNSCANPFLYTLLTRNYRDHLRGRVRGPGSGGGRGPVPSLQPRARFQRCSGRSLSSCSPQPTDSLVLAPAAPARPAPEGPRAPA
Briefly: Receptor Selection and Amplification (R-SAT) functional assay, NIH3T3 cells transfected with human urotensin II receptor and β-galactosidase marker. The format is cell-based. To be noted: for EC50 / pEC50: eight doses in triplicate. As to the method:
The functional receptor assay, Receptor Selection and Amplification Technology (R-SAT™), was used (with minor modifications from the procedure described previously (Brann, M. R. U.S. Pat. No. 5,707,798, 1998; Chem. Abstr. 1998, 128, 111548) to screen compounds for efficacy at the UII receptor. The RSAT assay was conducted as described herein.
Briefly, NIH3T3 cells were grown in tissue culture treated rollerbottles to 40-80% confluence in Dulbecco's modified Eagle's medium (DMEM) supplemented with 10% bovine calf serum (Hyclone) and 1% penicillin/streptomycin/glutamine (Invitrogen). Cells were transfected for 12-18 hours with the human urotensin II receptor and the β-galactosidase marker. After transfection, the cells were trypsinized, harvested and frozen in DMEM containing 10% DMSO. Frozen cells were later thawed and tested for a response to a control compound to perform quality control before initiation of pharmacological testing, ensuring the correct pharmacological response and sufficient sensitivity. To initiate the pharmacological assay, cells were thawed rapidly and prepared in DMEM media containing 0.4% calf serum (Hyclone), 30% UltraCulture (Biowhittaker), and 1% penicillin/streptomycin/glutamine (Invitrogen), and then plated at 10,000-40,000 cells per well of a 96½ area plate that contained either the test compounds or reference ligands. Cells were then grown in a humidified atmosphere with 5% ambient CO2 for five days. Media was then removed from the plates and marker gene activity was measured by the addition of the beta-galactosidase substrate ONPG (in PBS with 5% NP-40). The resulting colorimetric reaction was measured in a spectrophotometric plate reader (Titertek Inc.) at […].
pEC50 represents the negative logarithm of the concentration of ligand that caused 50% activation of the basal receptor response. Percent activation was calculated as the difference between the absorbance measurements in the absence of added ligand compared with that in the presence of saturating concentrations of ligand normalized to the absorbance difference for the reference ligand, which was assigned a value of 100%.
Results were determined in R-SAT assays and are expressed as pEC50, the negative of the log EC50 in molarity. Results are the average±standard deviation of 2-X determinations of the EC50 where each compound was tested in eight doses in triplicate.

Setting [1] is: NIH3T3, Table 4, % efficacy normalized to UII at 100%.
The mark [2] stands for this setting: Table 4, negative of the log EC50 in molarity, average ± standard deviation of 2-5 determinations.
[3] abbreviates: NIH3T3, Table 3, percent activation normalized to the reference ligand assigned 100%, read-out: Efficacy.
The mark [4] stands for this setting: Table 3, negative of the log EC50 in molarity, average ± standard deviation (or range) of determinations.

Regarding `CN(C)CCC(NC(=O)CCc1ccc(C(F)(F)F)cc1)c1ccc(Cl)cc1` (stereo not shown) [A5, N-[1-(4-Chlorophenyl)-3-dimethylamino-propyl]-3-(4-trifluoromethylphenyl) propionamide HCl], the Emax under setting [1] amounted to 73 ± 10%. For the same compound, the midpoint of the response under setting [2], the EC50, lay at 1120 nM.

As to `CCc1ccccc1C(=O)NC(CCN(C)C)c1ccc(Cl)cc1` (stereo not shown) [5c, N-[1-(4-Chlorophenyl)-3-dimethylamino-propyl]-2-ethyl-benzamide oxalate], under setting [3], the Emax was determined as 140 ± 14%. The compound further had an EC50 under setting [4] of 1020 nM.

For the compound “N-[1-(4-Chlorophenyl)-3-dimethylaminopropyloxycarbonyl]-4-phenyl-amine [7f]”, under setting [4], the negative logarithm of the EC50 (pEC50) is 6.44-6.67. In addition, the Efficacy (Table 3, percent activation normalized to the reference ligand assigned 100%) was 43-75%.

`COc1ccc(CC(=O)NC(CCN(C)C)c2ccc(C)cc2)cc1` (stereo not shown) [B3, N-[3-Dimethylamino-1-(4-methylphenyl)propyl]-2-(4-methoxyphenyl)acetamide HCl] gave an Emax under setting [1] of 62 ± 5%. Also, the EC50 under setting [2] is 5890 nM.

As to `Cc1ccccc1C(=O)OC(CCN(C)C)c1ccc(Cl)cc1.Cl` (stereo not shown) [4a, 1-(4-Chlorophenyl)-3-dimethylamino-propyl 2-methyl-benzoate HCl], under setting [3], the Emax stood at 126 ± 34%. Also, the pEC50 under setting [4] worked out at 5.77 ± 0.01.

`Cc1ccc(C(CCN(C)C)NC(=O)Cc2ccccc2)cc1` (stereo not shown) [B1, N-[3-Dimethylamino-1-(4-methylphenyl)propyl]-2-phenylacetamide HCl] yielded an Emax under setting [1] of 83 ± 11%. The compound further gave a half-maximal effective concentration (EC50) under setting [2] of 4170 nM.

Take `CN(C)CCC(NC(=O)c1ccc(-c2ccccc2)cc1)c1ccc(Cl)cc1` (single isomer, unassigned; (-)) [(−) 5o, (−)-N-[1-(4-Chlorophenyl)-3-dimethylamino-propyl]-4-phenyl-benzamide oxalate]: the Emax under setting [3] fell in the range of 112 to 114%. Under setting [4], the half-maximal effective concentration (EC50) is 1150 to 1200 nM.

Under setting [1], `CN(C)CCC(NC(=O)Cc1ccc(C(F)(F)F)cc1)c1ccc(Cl)cc1` (stereo not shown) [A2, N-[1-(4-Chlorophenyl)-3-dimethylamino-propyl]-2-(4-trifluoromethylphenyl)acetamide HCl] had an Emax of 53 ± 7%. Besides, a half-maximal response under setting [2] (EC50) required 871 nM.

As for `CN(C)CCC(NC(=O)c1ccc2ccccc2c1)c1ccc(Cl)cc1` (stereo not shown) [5n, N-[1-(4-Chlorophenyl)-3-dimethylamino-propyl]-2-naphthyl-carboxamide oxalate], under setting [3], the Emax is 109 ± 18%. The same compound had an EC50 under setting [4] of 407 nM.

`COc1ccc(CCC(=O)NC(CCN(C)C)c2ccc3ccccc3c2)cc1.Cl` (stereo not shown) [C6] displayed an Efficacy (Table 4, % efficacy normalized to UII at 100%) of 113 ± 9%. In addition, the negative-log EC50 (pEC50) under setting [2] amounted to 5.85 ± 0.11.

In the case of `CN(C)CCC(NC(=O)CCc1ccccc1)c1ccc(Cl)cc1` (stereo not shown) [A4, N-[1-(4-Chlorophenyl)-3-dimethylamino-propyl]-3-phenyl-propionamide HCl], the Emax under setting [1] came out at 139 ± 5%. Besides, under setting [2], the concentration for a half-maximal effect (EC50) was 1660 nM.

For `Cc1ccccc1NC(=O)NC(CCN(C)C)c1ccc(Cl)cc1` (stereo not shown) [8a, 1-[1-(4-Chlorophenyl)-3-dimethylaminopropyl]-3-(2-methylphenyl)-carbamide oxalate], the Emax under setting [3] stood at 166 ± 24%. For the same compound, under setting [4], the negative logarithm of the EC50 (pEC50) is listed as 5.64 ± 0.15.

Consider `COc1ccc(C=CC(=O)NC(CCN(C)C)c2ccc3ccccc3c2)cc1` (stereo not shown) [C9, N-[3-Dimethylamino-1-(2-naphthyl)propyl]-4-methoxy-cinnamic amide HCl], for which the Emax under setting [1] stood at 106 ± 16%. Under setting [2], a half-maximal effect (EC50) was put at 380 nM.

`Cc1cccc(C(=O)NC(CCN(C)C)c2ccc(Cl)cc2)c1C.O=C(O)C(=O)O` (stereo not shown) [5f, N-[1-(4-Chlorophenyl)-3-dimethylamino-propyl]-2,3-dimethyl-benzamide oxalate]: the Emax under setting [3] is 159 ± 1%. Also, the pEC50 under setting [4] was determined as 5.44 ± 0.08.

`CN(C)CCC(NC(=O)Nc1ccc(-c2ccccc2)cc1)c1ccc(Cl)cc1` (stereo not shown) [8f, 1-[1-(4-Chlorophenyl)-3-dimethylaminopropyl]-3-(4-phenylphenyl)-carbamide oxalate]: the Emax under setting [3] was in the range of 75 to 111%. Further, the EC50 under setting [4] was 110 to 178 nM.

Consider `Cc1ccc(C(CCN(C)C)NC(=O)CCc2ccc(C(F)(F)F)cc2)cc1` (stereo not shown) [B5, N-[3-Dimethylamino-1-(4-methylphenyl)propyl]-3-(4-trifluoromethylphenyl) propionamide HCl], for which the Emax under setting [1] worked out at 60 ± 6%. The same compound gave an EC50 under setting [2] of 2290 nM.

Regarding `CO[C@@H](C(=O)NC(CCN(C)C)c1ccc(Cl)cc1)c1ccccc1` (single isomer, unassigned; (-)) [(−) 5s, oxalate], the Emax under setting [3] is 165 ± 10%. The same compound had an EC50 under setting [4] of 871 nM.

With `COc1ccc(C(=O)OC(CCN(C)C)c2ccc(Cl)cc2)cc1` (stereo not shown) [4p, 1-(4-Chlorophenyl)-3-dimethylamino-propyl 4-methoxy-benzoate oxalate], the Emax under setting [3] lay in the range of 52 to 101%. The compound further showed an EC50 under setting [4] of 1550 to 3720 nM.

Compound `CN(C)CCC(NC(=O)Cc1ccc(C(F)(F)F)cc1)c1ccc2ccccc2c1` (stereo not shown) [C2, N-[3-Dimethylamino-1-(2-naphthyl)propyl]-2-(4-trifluoromethylphenyl)acetamide HCl] had an Emax under setting [1] of 40 ± 3%. Under setting [2], this compound gave an EC50 of 575 nM.

Take `Cc1cc(Br)ccc1C(=O)OC(CCN(C)C)c1ccc(Cl)cc1.Cl` (stereo not shown) [4g, 1-(4-Chlorophenyl)-3-dimethylamino-propyl 4-bromo-2-methyl-benzoate HCl]: under setting [3], the Emax was 95 ± 37%. This compound also came in with a negative logarithm of the EC50 (pEC50) under setting [4] of 5.97 ± 0.24.

With `COc1ccc(NC(=O)OC(CCN(C)C)c2ccc(Cl)cc2)cc1` (stereo not shown) [7h, N-[1-(4-Chlorophenyl)-3-dimethylaminopropyloxycarbonyl]-4-methoxyphenyl-amine], the Emax under setting [3] lay within 130 to 223%. The compound also gave a concentration giving a half-maximal response (EC50) under setting [4] of 955 to 2450 nM.

Under setting [1], `Cc1ccc(C(CCN(C)C)NC(=O)C#Cc2ccccc2)cc1` (stereo not shown) [B10, N-[3-Dimethylamino-1-(4-methylphenyl)propyl]-3-phenylpropiolic amide] showed an Emax of 131%. The concentration for a half-maximal effect (EC50) under setting [2] was 3090 nM.

`Cc1ccc(C(CCN(C)C)NC(=O)C=Cc2ccccc2)cc1` (stereo not shown) [B7, N-[3-Dimethylamino-1-(4-methylphenyl)propyl]cinnamic amide] returned an Emax under setting [1] of 97 ± 6%. Further, under setting [2], a half-maximal effect (EC50) was put at 1550 nM.

Take `CN(C)CCC(OC(=O)Nc1ccc(Oc2ccccc2)cc1)c1ccc(Cl)cc1` (stereo not shown) [7d, N-[1-(4-Chlorophenyl)-3-dimethylaminopropyloxycarbonyl]-4-phenoxyphenyl-amine]: under setting [3], the Emax turned out to be 96%. The compound further gave an EC50 under setting [4] of 126 nM.

In the case of `Cc1ccc(C(=O)NC(CCN(C)C)c2ccc(Cl)cc2)c(C)c1.O=C(O)C(=O)O` (stereo not shown) [5i, N-[1-(4-Chlorophenyl)-3′-dimethylamino-propyl]-2,4-dimethyl-benzamide oxalate], under setting [3], the Emax came out at 147 ± 29%. Under setting [4], the pEC50 is listed as 5.81 ± 0.06.

In turn, `CN(C)CCC(NC(=O)/C=C/c1ccccc1)c1ccc2ccccc2c1` (stereo not shown) [C7, N-[3-Dimethylamino-1-(2-naphthyl)propyl]-3-cinnamic amide HCl] registered an Emax under setting [1] of 116 ± 3%. Also, the EC50 under setting [2] was 589 nM.

Consider `CN(C)CCC(NC(=O)NCc1ccccc1)c1ccc(Cl)cc1` (stereo not shown) [8e, 1-[1-(4-Chlorophenyl)-3-dimethylaminopropyl]-3-benzyl-carbamide oxalate], for which, under setting [3], the Emax lay within 166 to 193%. The EC50 under setting [4] was 1780 to 2290 nM.

For the compound `CN(C)CCC(NC(=O)Nc1ccc2ccccc2c1)c1ccc(Cl)cc1` (stereo not shown) [8g, 1-[1-(4-Chlorophenyl)-3-dimethylaminopropyl]-3-(2-naphthyl)-carbamide oxalate], the Emax under setting [3] was in the range of 89 to 129%. Under setting [4], this compound showed an EC50 of 229 to 380 nM.

Regarding `Cc1ccc(C)c(C(=O)OC(CCN(C)C)c2ccc(Cl)cc2)c1.Cl` (stereo not shown) [4h, 1-(4-Chlorophenyl)-3-dimethylamino-propyl 2,5-dimethyl-benzoate HCl], the Emax under setting [3] was 86%. For the same compound, the pEC50 under setting [4] amounted to 5.73 ± 0.15.
